Results on 13 compounds are retold here after patent US20110060009A1, “Hydroxamate-Based Inhibitors of Deacetylases” (NOVARTIS AG, priority 2009, published 2011).

One assay relates to HCT116. The assay is described as follows: HCT116 IC50 (Table 2, no method described). The class given is cell-based. Particulars: Homo sapiens, HCT-116.
For a further assay, the target named is T1, HDAC-1 (Homo sapiens, UniProt Q13547).
T1 construct: made in house; host or cells: Sf9 or Sf21 insect cells (baculovirus, donor vector pFB-GSTX3)
The assay is described as follows: HDAC Inhibition Assay (purified GST-HDAC protein). Type of assay: biochemical. The source says: The baculovirus donor vector pFB-GSTX3 is used to generate a recombinant baculovirus that expresses the HDAC polypeptide. Transfer vectors containing the HDAC coding region are transfected into the DH10Bac cell line (GIBCO) and plated on selective agar plates. Colonies without insertion of the fusion sequence into the viral genome (carried by the bacteria) are blue. Single, white colonies are picked and viral DNAs (bacmid) are isolated from the bacteria by standard plasmid purification procedures. Sf9 cells or Sf21 (American Type Culture Collection) cells are then transfected in […] flasks with the viral DNA using Cellfectin reagent.
Virus-containing media is collected from the transfected cell culture and used for infection to increase its titer. Virus-containing media obtained after two rounds of infection is used for large-scale protein expression. For large-scale protein expression 100 cm^2 round tissue culture plates are seeded with 5×10^7 cells/plate and infected with 1 mL of virus-containing media (at an approximately MOI of 5). After 3 days, the cells are scraped off the plate and centrifuged at 500 rpm for 5 minutes. Cell pellets from 10-20, 100 cm^2 plates, are re-suspended in 50 mL of ice-cold lysis buffer (25 mM tris-HCl, pH 7.5, 2 mM EDTA, 1% NP-40, 1 mM DTT, 1 mM P MSF). The cells are stirred on ice for 15 minutes and then centrifuged at 5,000 rpms for 20 minutes.
The centrifuged cell lysate is loaded onto a 2 mL glutathione-sepharose column (Pharmacia) and is washed thrice with 10 mL of 25 mM tris-HCl, pH 7.5, 2 mM EDTA, 1 mM DTT, 200 mM NaCl. The GST-tagged proteins are then eluted by 10 applications (1 mL each) of 25 mM tris-HCl, pH 7.5, 10 mM reduced-glutathione, 100 mM NaCl, 1 mM DTT, 10% glycerol and stored at −70° C.
HDAC assays with purified GST-HDAC protein are carried out in a final volume of 30 μL containing 15 ng of GST-HDAC protein, 20 mM tris-HCl, pH 7.5, 1 mM MnCl2, 10 mM MgCl2, 1 mM DTT, 3 μg/mL poly(Glu,Tyr) 4:1, 1% DMSO, 2.0 μM ATP (γ-[^33P]-ATP 0.1 μCi). The activity is assayed in the presence or absence of inhibitors. The assay is carried out in 96-well plates at ambient temperature for 15 minutes under conditions described below and terminated by the addition of 20 μL of 125 mM EDTA. Subsequently, 40 μL of the reaction mixture are transferred onto EMMOBILON-PVDF membrane (Millipore) previously soaked for 5 minutes with methanol, rinsed with water, then soaked for 5 minutes with 0.5% H3PO4 and mounted on vacuum manifold with disconnected vacuum source. After spotting all samples, a vacuum is connected and each well-rinsed with 200 μL 0.5% H3PO4. Membranes are removed and washed four times on a shaker with 1.0% H3PO4, once with ethanol. Membranes are counted after drying at ambient temperature, mounting in Packard TopCount 96-well frame, and addition of 10 μL/well of MICROSCINT™ (Packard). IC50 values are calculated by linear regression analysis of the percentage inhibition of each compound in duplicate, at 4 concentrations (usually 0.01, 0.1, 1 and 10 μM).
• Input: 3×4 μL stopped assay on IMMOBILON membrane, not washed • Background (3 wells): assay with H2O instead of enzyme • Positive control (4 wells): 3% DMSO instead of compound • Bath control (1 well): no reaction mix
IC50 values are calculated by logarithmic regression analysis of the percentage inhibition of each compound at 4 concentrations (usually 3- or 10-fold dilution series starting at 10 μM). In each experiment, the actual inhibition by reference compound is used for normalization of IC50 values to the basis of an average value of the reference inhibitor:
Normalized IC50=measured IC50 average ref. IC50/measured ref. IC50

T1 sequence (Q13547 whole entry, species assumed): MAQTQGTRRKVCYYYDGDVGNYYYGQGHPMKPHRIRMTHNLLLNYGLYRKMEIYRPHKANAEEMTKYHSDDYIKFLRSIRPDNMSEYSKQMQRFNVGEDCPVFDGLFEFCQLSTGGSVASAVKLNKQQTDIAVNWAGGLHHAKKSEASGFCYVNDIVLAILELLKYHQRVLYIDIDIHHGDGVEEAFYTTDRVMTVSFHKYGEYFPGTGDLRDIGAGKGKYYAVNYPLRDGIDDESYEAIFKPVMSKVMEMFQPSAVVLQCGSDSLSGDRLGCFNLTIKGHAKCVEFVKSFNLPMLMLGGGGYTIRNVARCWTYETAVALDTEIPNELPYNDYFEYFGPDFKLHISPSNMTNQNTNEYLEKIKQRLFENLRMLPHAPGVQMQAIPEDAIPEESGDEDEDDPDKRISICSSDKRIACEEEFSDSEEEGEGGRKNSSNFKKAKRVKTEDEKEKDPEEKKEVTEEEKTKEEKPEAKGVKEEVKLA

What is called IC50 is the concentration that inhibits the measured activity by half. A high value points to weaker potency in that assay. As for `Cc1nn(C)c(C)c1C[C@H]1C[C@H](O)CN1Cc1ccc(/C=C/C(=O)NO)cc1` [Cpd 31, (E)-N-Hydroxy-3-{4-[(2S,4S)-4-hydroxy-2-(1,3,5-trimethyl-1H-pyrazol-4-ylmethyl)-pyrrolidin-1-ylmethyl]-phenyl}-acrylamide], the IC50 in the assay with HCT116 amounted to 16 nM; against HDAC-1, 2 nM.

In the case of `O=C(/C=C/c1ccc(CN2CCC[C@H]2C(=O)c2c[nH]c3ccccc23)cc1)NO` [Cpd 11, (E)-N-Hydroxy-3-{4-[(S)-2-(1H-indole-3-carbonyl)-pyrrolidin-1-ylmethyl]-phenyl}-acrylamide], the figures for the IC50 in the assay on HCT116 and against HDAC-1 were 560 nM and 56 nM, respectively.

For `O=C(/C=C/c1ccc(CN2CCCC2Cc2cccnc2)cc1)NO` (centres unmarked) [Cpd 6, (E)-N-Hydroxy-3-[4-(2-pyridin-3-ylmethyl-pyrrolidin-1-ylmethyl)-phenyl]-acrylamide], 5 nM corresponded to half-maximal inhibition at HDAC-1 (IC50).

For `O=C(/C=C/c1ccc(CN2CCC[C@@H]2Cc2c[nH]c3ccccc23)c(F)c1)NO` [Cpd 9, (E)-3-{3-Fluoro-4-[(R)-2-(1H-indol-3-ylmethyl)-pyrrolidin-1-ylmethyl]-phenyl}-N-hydroxy-acrylamide], the IC50 with HCT116 was 3 nM; at HDAC-1 it was 1.3 nM.

As to `CC(c1ccc(/C=C/C(=O)NO)cc1)N1CCC[C@H]1CN1CCCC1` (stereo partly drawn) [Cpd 16, (E)-N-Hydroxy-3-{4-[1-((S)-2-pyrrolidin-1-ylmethyl-pyrrolidin-1-yl)-ethyl]-phenyl}-acrylamide], on HDAC-1, inhibition was half-maximal at 380 nM (IC50).

As for `Cc1nn(-c2ccccc2)c(C)c1C(O)[C@H]1C[C@H](O)CN1Cc1ccc(/C=C/C(=O)NO)cc1` (stereo partly drawn) [Cpd 34, (E)-3-(4-{(2R,4S)-2-[(3,5-Dimethyl-1-phenyl-1H-pyrazol-4-yl)-hydroxy-methyl]-4-hydroxy-pyrrolidin-1-ylmethyl}-phenyl)-N-hydroxy-acrylamide], the IC50 at HDAC-1 worked out at 27 nM.

Regarding `O=C(/C=C/c1ccc(CN2C[C@H](O)C[C@@H]2Cc2c[nH]c3ccccc23)cc1)NO` [Cpd 23, (E)-N-Hydroxy-3-{4-[(2S,4R)-4-hydroxy-2-(1H-indol-3-ylmethyl)-pyrrolidin-1-ylmethyl]-phenyl}-acrylamide], the IC50 in the assay with HCT116 was determined as 8 nM; against HDAC-1 it was 1.7 nM.

`O=C(/C=C/c1ccc(CN2C[C@H](O)C[C@@H]2Cn2cc(-c3cccnc3)nn2)cc1)NO` [Cpd 41, (E)-N-Hydroxy-3-{4-[(2R,4R)-4-hydroxy-2-(4-pyridin-3-yl-[1,2,3]triazol-1-ylmethyl)-pyrrolidin-1-ylmethyl]-phenyl}-acrylamide] returned an IC50 on HDAC-1 of 170 nM.

`O=C(/C=C/c1ccc(CN2CCC[C@@H]2Cc2nc(-c3ccccc3)no2)cc1)NO` [Cpd 39, (E)-N-Hydroxy-3-{4-[(R)-2-(3-phenyl-[1,2,4]oxadiazol-5-ylmethyl)-pyrrolidin-1-ylmethyl]-phenyl}-acrylamide] yielded an IC50 at HDAC-1 of 20 nM.

As to `Cc1nn(-c2ccccc2)c(C)c1C[C@H]1C[C@H](O)CN1Cc1ccc(/C=C/C(=O)NO)cc1` [Cpd 33, (E)-3-{4-[(2S,4S)-2-(3,5-Dimethyl-1-phenyl-1H-pyrazol-4-ylmethyl)-4-hydroxy-pyrrolidin-1-ylmethyl]-phenyl}-N-hydroxy-acrylamide], the midpoint of inhibition against HDAC-1, the IC50, lay at 0.7 nM.

In turn, `Cc1[nH]c2ccccc2c1C[C@H]1CCCN1Cc1ccc(/C=C/C(=O)NO)cn1` [Cpd 26, (E)-N-Hydroxy-3-{6-[(R)-2-(2-methyl-1H-indol-3-ylmethyl)-pyrrolidin-1-ylmethyl]-pyridin-3-yl}-acrylamide] came in with an IC50 against HDAC-1 of 1.7 nM.

For `Cc1[nH]c2ccccc2c1C[C@H]1C[C@H](O)CN1Cc1ccc(/C=C/C(=O)NO)cn1` [Cpd 28, (E)-N-Hydroxy-3-{6-[(2S,4S)-4-hydroxy-2-(2-methyl-1H-indol-3-ylmethyl)-pyrrolidin-1-ylmethyl]-pyridin-3-yl}-acrylamide], on HDAC-1, half-maximal inhibition (IC50) required 1.7 nM.

At HDAC-1, `CC(C)CC1CCCN1Cc1ccc(/C=C/C(=O)NO)cc1` (centres unmarked) [Cpd 5, (E)-N-Hydroxy-3-[4-(2-isobutyl-pyrrolidin-1-ylmethyl)-phenyl]-acrylamide] showed an IC50 of 8 nM.
